According to ChEMBL document CHEMBL4024703, “Recent Progress in the Development of Transglutaminase 2 (TGase2) Inhibitors” (J Med Chem, 2017):
pIC50: −log10 of the molar value. Values belong to the compound of their own block, whether it stands above or below them.

Assays:
Homo sapiens [1] = species: Homo sapiens; assay: Selectivity ratio of IC50 for human TG6 to IC50 for human TG2
Homo sapiens [2] = species: Homo sapiens; assay: Selectivity ratio of IC50 for human TG1 to IC50 for human TG2
Homo sapiens [3] = species: Homo sapiens; assay: Selectivity ratio of IC50 for human TG3 to IC50 for human TG2
Homo sapiens [4] = species: Homo sapiens; assay: Selectivity ratio of IC50 for human F13a to IC50 for human TG2
[5] = Metabolic stability in Wistar rat blood plasma after 15 mins by HPLC analysis; type: ADME, cell-free; details: read-out: Stability
[6] = Metabolic stability in Wistar rat blood plasma after 45 mins by HPLC analysis; type: ADME, cell-free; details: read-out: Stability
Mus musculus [7] = assay: Antihypertensive activity in C57BL/6 mouse angiotensin 2-induced hypertensive nephrosclerosis model assessed as reduction in collagen deposition in blood vessels at 25 mg/kg/day administered sc with angiotensin 2 for 14 days by Sirius red/collagen staining based assay; type: functional; details: C57BL/6, sc, 336 h
Mus musculus [8] = assay: Antihypertensive activity in C57BL/6 mouse angiotensin 2-induced hypertensive nephrosclerosis model assessed as reduction in collagen deposition in kidney at 25 mg/kg/day administered sc with angiotensin 2 for 14 days by Sirius red/collagen staining based assay; type: functional; details: C57BL/6, sc, 336 h
[9] = target: T1, Protein-glutamine gamma-glutamyltransferase (Homo sapiens, UniProt P21980); assay: Inhibition of recombinant human TG2 by fluorescence assay
T1 sequence (P21980 whole entry): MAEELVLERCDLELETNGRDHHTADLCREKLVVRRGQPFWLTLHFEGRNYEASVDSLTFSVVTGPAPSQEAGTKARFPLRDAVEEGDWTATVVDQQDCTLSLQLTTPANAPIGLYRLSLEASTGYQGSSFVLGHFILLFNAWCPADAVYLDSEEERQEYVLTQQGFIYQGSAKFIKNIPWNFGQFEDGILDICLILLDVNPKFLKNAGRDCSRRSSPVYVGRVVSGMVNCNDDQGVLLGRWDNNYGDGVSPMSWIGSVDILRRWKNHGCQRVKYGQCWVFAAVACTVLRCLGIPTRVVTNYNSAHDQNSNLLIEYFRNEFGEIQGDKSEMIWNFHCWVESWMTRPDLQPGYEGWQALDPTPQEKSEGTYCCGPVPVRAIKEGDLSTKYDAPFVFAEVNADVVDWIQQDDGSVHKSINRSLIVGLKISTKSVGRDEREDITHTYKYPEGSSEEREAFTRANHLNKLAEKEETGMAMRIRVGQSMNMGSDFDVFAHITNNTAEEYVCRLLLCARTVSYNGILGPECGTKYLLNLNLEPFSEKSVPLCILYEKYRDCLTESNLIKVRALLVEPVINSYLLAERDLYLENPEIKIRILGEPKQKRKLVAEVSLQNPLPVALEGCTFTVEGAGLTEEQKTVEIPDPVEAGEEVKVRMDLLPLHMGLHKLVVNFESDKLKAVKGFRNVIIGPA

- Ratio IC50 (Homo sapiens [1]): > 100
- Ratio IC50 (Homo sapiens [2]): > 100
- Ratio IC50 (Homo sapiens [3]): > 100
- Ratio IC50 (Homo sapiens [4]): > 100
Compound: CCC(CC)CNC(=O)Cn1cccc(NC(=O)[C@H](CC/C=C/C(=O)OC)NC(=O)c2cncn2C)c1=O

- remaining at 0.25 h [5]: 65%
- remaining at 0.75 h [6]: 29%
Compound: C=CC(=O)NCCCC[C@H](NC(=O)Cc1ccccc1)C(=O)N1CCN(c2cccc(C)n2)CC1

- pIC50 [9]: 8.22
Compound: C=CC(=O)NCC(=O)N1CCN(S(=O)(=O)c2cccc3c(N(C)C)cccc23)CC1
- inhibition in vivo at 25 mg/kg/day (Mus musculus [7]): 45%
- inhibition in vivo at 25 mg/kg/day (Mus musculus [8]): 40%
